Measurements reported in ChEMBL document CHEMBL5723587, “Data for DCP probe BI-113823” (2024).
Calls of active or inactive are those of the source. The rule behind the calls is not given here.

Key:
B1 bradykinin receptor [1] = target: T1, B1 bradykinin receptor (Homo sapiens, UniProt P46663); test: Radioligand binding assay (displacement of kallidin, hBDKRB1 ) at 10 µM ( Non-specific binding is estimated in the presence of 10 µM Des-Arg9- (Leu8)-Bradykinin. Membranes are filtered and washed, the filters are then counted to determine [3H]Kallidin[des-Arg10, Leu9] specifically bound.); parameters: compound concentration 10 uM
T1 sequence (P46663 whole entry): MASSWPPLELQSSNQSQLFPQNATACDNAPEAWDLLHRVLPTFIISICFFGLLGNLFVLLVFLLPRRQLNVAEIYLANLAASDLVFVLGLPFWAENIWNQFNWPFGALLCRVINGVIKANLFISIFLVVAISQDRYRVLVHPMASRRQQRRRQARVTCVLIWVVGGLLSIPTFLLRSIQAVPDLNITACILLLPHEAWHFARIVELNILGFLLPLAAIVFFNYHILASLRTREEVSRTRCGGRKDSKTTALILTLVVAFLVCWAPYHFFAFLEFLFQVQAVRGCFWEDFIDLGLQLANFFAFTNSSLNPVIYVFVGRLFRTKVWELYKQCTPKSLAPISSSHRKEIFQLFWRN

B1 bradykinin receptor [2] = target: B1 bradykinin receptor (Rattus norvegicus, UniProt P97583); test: Radioligand binding assay (displacement of kallidin, rat BDKRB1 ) at 10 µM ( Non-specific binding is estimated in the presence of 10 µM Des-Arg9- (Leu8)-Bradykinin. Membranes are filtered and washed, the filters are then counted to determine [3H]Kallidin[des-Arg10, Leu9] specifically bound.); parameters: compound concentration 10 uM
B2 bradykinin receptor = B2 bradykinin receptor (Homo sapiens, UniProt P30411); test: Radioligand binding assay (displacement of kallidin, human BDKRB2 ) at 10 µM ( Non-specific binding is estimated in the presence of 10 µM Des-Arg9- (Leu8)-Bradykinin. Membranes are filtered and washed, the filters are then counted to determine [3H]Kallidin[des-Arg10, Leu9] specifically bound.); parameters: compound concentration 10 uM
B1 bradykinin receptor [3] = target: T1, B1 bradykinin receptor; test: Measurement of intracellular calcium in HEK-cells expressing hBDKRB1 at up to 1 µM ( The compound antagonizes the effects of the specific B1 agonist [Lys-des-Arg9 ]-Bradykinin (10 nM) in a concentration-dependent manner.); type: functional, cell-based; parameters: compound concentration < 1 uM
[4] = target: Adenosine receptor A1 (Homo sapiens) (UniProt P30542); test: Activity against A1/HU in the Eurofins SafetyScreen44 (BI) by Radioactive Assay; conditions: Compound concentration 10.0 uM
[5] = target: Type-1 angiotensin II receptor (Homo sapiens) (UniProt P30556); test: Activity against AT1/HU in the Eurofins SafetyScreen44 (BI) by Radioligand Binding; conditions: Compound concentration 10.0 uM
[6] = target: Beta-1 adrenergic receptor (Homo sapiens) (UniProt P08588); test: Activity against BETA1/HU in the Eurofins SafetyScreen44 (BI) by Radioactive Assay; conditions: Compound concentration 10.0 uM
[7] = target: Voltage-dependent N-type calcium channel subunit alpha-1B (Rattus norvegicus) (UniProt Q02294); test: Activity against CA+/N/RA in the Eurofins SafetyScreen44 (BI) by Radioactive Assay; conditions: Compound concentration 10.0 uM
[8] = target: Cysteinyl leukotriene receptor 1 (Homo sapiens) (UniProt Q9Y271); test: Activity against CYSLT1_HS in the Eurofins SafetyScreen44 (BI) by Radioactive Assay; conditions: Compound concentration 10.0 uM
[9] = target: D(1A) dopamine receptor (Homo sapiens) (UniProt P21728); test: Activity against D1/HU in the Eurofins SafetyScreen44 (BI) by Radioactive Assay; conditions: Compound concentration 10.0 uM
D(1A) dopamine receptor (Homo sapiens), sequence (P21728 whole entry): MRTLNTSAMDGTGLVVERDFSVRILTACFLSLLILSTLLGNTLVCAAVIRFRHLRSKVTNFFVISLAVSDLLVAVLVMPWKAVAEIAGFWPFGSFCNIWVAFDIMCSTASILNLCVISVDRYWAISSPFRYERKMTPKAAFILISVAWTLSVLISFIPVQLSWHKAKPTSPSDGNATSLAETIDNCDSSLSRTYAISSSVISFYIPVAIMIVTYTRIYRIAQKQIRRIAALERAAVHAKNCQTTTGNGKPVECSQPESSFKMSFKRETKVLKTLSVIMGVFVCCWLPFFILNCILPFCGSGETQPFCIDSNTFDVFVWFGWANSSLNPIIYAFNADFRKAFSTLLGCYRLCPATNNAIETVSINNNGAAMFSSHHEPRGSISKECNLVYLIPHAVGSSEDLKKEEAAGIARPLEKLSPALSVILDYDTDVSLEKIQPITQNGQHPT

[10] = target: D(4) dopamine receptor (Homo sapiens) (UniProt P21917); test: Activity against D4.2/H in the Eurofins SafetyScreen44 (BI) by Radioactive Assay; conditions: Compound concentration 10.0 uM
[11] = target: Sodium-dependent dopamine transporter (Homo sapiens) (UniProt Q01959); test: Inhibitor of DATRANS/H in the Eurofins SafetyScreen44 (BI) by Radioactive Assay; conditions: Compound concentration 10.0 uM
[12] = target: Epidermal growth factor receptor (Homo sapiens) (UniProt P00533); test: Activity against EGF/HU in the Eurofins SafetyScreen44 (BI) by Radioactive Assay; conditions: Compound concentration 10.0 uM
[13] = target: Prostaglandin E2 receptor EP4 subtype (Homo sapiens) (UniProt P35408); test: Activity against EP4/H in the Eurofins SafetyScreen44 (BI) by Radioactive Assay; conditions: Compound concentration 10.0 uM
[14] = target: Estrogen receptor (Homo sapiens) (UniProt P03372); test: Activity against ERALPHA/H in the Eurofins SafetyScreen44 (BI) by Radioactive Assay; conditions: Compound concentration 10.0 uM
Estrogen receptor (Homo sapiens), sequence (P03372 whole entry): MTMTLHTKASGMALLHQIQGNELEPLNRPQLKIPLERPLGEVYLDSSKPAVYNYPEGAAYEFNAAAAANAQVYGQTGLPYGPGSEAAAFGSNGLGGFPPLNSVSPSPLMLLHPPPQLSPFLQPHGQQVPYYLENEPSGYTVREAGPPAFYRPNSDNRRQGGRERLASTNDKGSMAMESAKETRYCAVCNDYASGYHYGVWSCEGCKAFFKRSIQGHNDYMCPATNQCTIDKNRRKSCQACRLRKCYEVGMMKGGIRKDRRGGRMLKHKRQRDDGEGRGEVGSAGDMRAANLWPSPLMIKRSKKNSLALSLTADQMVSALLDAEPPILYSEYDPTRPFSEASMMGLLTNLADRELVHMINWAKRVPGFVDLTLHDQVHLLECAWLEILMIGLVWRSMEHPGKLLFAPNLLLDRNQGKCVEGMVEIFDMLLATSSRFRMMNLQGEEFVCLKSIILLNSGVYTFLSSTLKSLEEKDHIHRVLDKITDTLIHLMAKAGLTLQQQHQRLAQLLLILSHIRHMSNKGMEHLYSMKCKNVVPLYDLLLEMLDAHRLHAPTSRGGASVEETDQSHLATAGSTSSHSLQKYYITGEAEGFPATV

[15] = target: Endothelin receptor type B (Homo sapiens) (UniProt P24530); test: Activity against ETB/HUM in the Eurofins SafetyScreen44 (BI) by Radioactive Assay; conditions: Compound concentration 10.0 uM
Endothelin receptor type B (Homo sapiens), sequence (P24530 whole entry): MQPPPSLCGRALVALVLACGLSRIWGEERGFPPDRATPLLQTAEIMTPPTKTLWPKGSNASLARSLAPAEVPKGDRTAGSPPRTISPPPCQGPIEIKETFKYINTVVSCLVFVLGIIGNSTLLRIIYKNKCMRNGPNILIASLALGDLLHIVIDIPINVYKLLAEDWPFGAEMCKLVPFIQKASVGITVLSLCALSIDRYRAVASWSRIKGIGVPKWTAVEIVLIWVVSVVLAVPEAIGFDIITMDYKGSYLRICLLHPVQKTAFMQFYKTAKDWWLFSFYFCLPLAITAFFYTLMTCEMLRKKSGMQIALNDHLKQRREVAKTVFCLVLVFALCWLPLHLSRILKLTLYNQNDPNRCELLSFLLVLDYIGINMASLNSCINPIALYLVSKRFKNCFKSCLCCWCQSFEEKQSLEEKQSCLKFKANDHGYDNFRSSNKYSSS

[16] = target: Gamma-aminobutyric acid receptor subunit alpha-1 (Rattus norvegicus) (UniProt P62813); test: Activity against GABAA MUSCIMOL CENT in the Eurofins SafetyScreen44 (BI) by Scintillation counting; conditions: Compound concentration 10.0 uM
[17] = target: Sodium- and chloride-dependent GABA transporter 1 (Rattus norvegicus) (UniProt P23978); test: Activity against GABATRANS/RA in the Eurofins SafetyScreen44 (BI) by Radioactive Assay; conditions: Compound concentration 10.0 uM
[18] = target: Glucocorticoid receptor (Homo sapiens) (UniProt P04150); test: Activity against GLUCOCORTICO in the Eurofins SafetyScreen44 (BI) by Radioactive Assay; conditions: Compound concentration 10.0 uM
[19] = target: Histamine H2 receptor (Homo sapiens) (UniProt P25021); test: Activity against H2/H in the Eurofins SafetyScreen44 (BI) by Radioactive Assay; conditions: Compound concentration 10.0 uM
Histamine H2 receptor (Homo sapiens), sequence (P25021 whole entry): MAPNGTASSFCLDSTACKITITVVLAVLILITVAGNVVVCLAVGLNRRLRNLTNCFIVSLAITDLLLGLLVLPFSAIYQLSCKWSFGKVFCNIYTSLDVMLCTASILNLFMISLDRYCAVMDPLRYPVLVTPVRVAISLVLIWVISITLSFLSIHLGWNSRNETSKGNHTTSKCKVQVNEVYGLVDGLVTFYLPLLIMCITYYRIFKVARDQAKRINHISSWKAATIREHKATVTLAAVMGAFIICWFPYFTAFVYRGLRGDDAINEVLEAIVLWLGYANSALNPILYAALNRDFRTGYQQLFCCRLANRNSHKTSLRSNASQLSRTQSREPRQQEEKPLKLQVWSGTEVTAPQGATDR

[20] = target: Histamine H3 receptor (Homo sapiens) (UniProt Q9Y5N1); test: Activity against H3/H in the Eurofins SafetyScreen44 (BI) by Radioactive Assay; conditions: Compound concentration 10.0 uM
Histamine H3 receptor (Homo sapiens), sequence (Q9Y5N1 whole entry): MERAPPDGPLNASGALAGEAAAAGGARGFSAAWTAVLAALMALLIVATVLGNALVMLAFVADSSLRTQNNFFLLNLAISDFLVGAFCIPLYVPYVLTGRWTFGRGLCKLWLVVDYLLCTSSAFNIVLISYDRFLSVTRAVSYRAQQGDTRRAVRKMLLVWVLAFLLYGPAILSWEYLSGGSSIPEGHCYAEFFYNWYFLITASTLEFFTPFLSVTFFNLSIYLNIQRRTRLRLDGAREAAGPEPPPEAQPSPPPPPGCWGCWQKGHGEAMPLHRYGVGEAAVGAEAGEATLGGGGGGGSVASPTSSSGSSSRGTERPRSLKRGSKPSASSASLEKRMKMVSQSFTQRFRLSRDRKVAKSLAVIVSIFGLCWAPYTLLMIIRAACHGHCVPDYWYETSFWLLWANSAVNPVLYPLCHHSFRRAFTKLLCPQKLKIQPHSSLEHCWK

hERG (KCNH2) = hERG (KCNH2) (Homo sapiens, UniProt Q12809); test: Activity against K+/HERG in the Eurofins SafetyScreen44 (BI) by Radioactive Assay; conditions: compound concentration 10 uM, read-out: % Ctrl
hERG (KCNH2), sequence (Q12809 whole entry): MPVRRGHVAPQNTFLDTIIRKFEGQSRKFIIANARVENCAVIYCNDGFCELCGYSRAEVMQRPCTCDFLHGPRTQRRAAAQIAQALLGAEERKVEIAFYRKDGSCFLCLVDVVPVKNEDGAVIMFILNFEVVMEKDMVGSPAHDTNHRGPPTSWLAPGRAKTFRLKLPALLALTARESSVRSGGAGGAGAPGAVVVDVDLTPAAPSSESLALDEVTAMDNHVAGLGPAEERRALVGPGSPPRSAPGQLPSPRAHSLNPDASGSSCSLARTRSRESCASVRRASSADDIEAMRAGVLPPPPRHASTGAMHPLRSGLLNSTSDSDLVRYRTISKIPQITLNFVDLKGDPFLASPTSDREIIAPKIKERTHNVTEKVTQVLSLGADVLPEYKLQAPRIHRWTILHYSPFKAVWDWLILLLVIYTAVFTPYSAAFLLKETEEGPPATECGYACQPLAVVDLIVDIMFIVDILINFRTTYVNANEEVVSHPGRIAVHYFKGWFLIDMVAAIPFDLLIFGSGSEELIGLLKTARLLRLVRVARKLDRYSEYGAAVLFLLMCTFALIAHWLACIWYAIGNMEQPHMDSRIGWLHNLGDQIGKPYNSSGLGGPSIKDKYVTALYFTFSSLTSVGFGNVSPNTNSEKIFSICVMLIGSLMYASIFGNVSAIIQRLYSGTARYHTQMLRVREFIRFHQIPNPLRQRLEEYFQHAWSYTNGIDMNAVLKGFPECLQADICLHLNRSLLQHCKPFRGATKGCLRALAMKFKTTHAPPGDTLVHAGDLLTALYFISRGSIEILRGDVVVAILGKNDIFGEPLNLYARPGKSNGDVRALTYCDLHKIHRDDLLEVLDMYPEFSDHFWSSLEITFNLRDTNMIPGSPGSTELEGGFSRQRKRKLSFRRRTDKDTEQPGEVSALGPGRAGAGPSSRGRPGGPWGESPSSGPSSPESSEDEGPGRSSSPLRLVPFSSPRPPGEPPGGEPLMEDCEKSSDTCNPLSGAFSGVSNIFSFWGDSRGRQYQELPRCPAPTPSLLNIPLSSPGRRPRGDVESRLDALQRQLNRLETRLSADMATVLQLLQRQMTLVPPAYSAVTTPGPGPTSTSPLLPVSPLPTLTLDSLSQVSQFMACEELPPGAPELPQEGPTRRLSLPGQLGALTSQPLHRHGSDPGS

[21] = target: Kappa-type opioid receptor (Homo sapiens) (UniProt P41145); test: Activity against KAPPA/HU in the Eurofins SafetyScreen44 (BI) by Radioactive Assay; conditions: Compound concentration 10.0 uM
Kappa-type opioid receptor (Homo sapiens), sequence (P41145 whole entry): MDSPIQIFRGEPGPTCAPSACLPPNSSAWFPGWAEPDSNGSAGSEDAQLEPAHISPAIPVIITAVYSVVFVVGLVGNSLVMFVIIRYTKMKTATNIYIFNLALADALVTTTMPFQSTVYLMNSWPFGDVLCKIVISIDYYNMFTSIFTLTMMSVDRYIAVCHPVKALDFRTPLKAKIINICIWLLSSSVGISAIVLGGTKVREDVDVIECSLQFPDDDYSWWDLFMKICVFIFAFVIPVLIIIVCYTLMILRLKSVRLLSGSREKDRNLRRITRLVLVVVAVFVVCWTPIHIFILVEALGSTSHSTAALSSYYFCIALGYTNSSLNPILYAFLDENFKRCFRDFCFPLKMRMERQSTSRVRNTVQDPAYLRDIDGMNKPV

[22] = target: Mu-type opioid receptor (Homo sapiens) (UniProt P35372); test: Activity against MU/HU in the Eurofins SafetyScreen44 (BI) by Radioactive Assay; conditions: Compound concentration 10.0 uM
[23] = target: Nicotinic acetylcholine receptor alpha-1/beta-1 (Homo sapiens) (UniProt P02708+P11230); test: Activity against NACH_BS_N/H in the Eurofins SafetyScreen44 (BI) by Radioactive Assay; type: protein-complex assay; conditions: Compound concentration 10.0 uM
[24] = target: Protein kinase C alpha type (Mus musculus) (UniProt P20444); test: Inhibitor of PHORBOLE/M in the Eurofins SafetyScreen44 (BI) by Radioactive Assay; conditions: Compound concentration 10.0 uM
[25] = target: Sigma non-opioid intracellular receptor 1 (Homo sapiens) (UniProt Q99720); test: Activity against SIGMA1/HU in the Eurofins SafetyScreen44 (BI) by Radioactive Assay; conditions: Compound concentration 10.0 uM
[26] = target: Neuropeptide Y receptor type 1 (Homo sapiens) (UniProt P25929); test: Activity against Y1/HU in the Eurofins SafetyScreen44 (BI) by Radioactive Assay; conditions: Compound concentration 10.0 uM
[27] = target: Alpha-1A adrenergic receptor (Rattus norvegicus) (UniProt P43140); test: Activity against ALPHA1A/R in the Eurofins SafetyScreen44 (BI) by Others; conditions: Compound concentration 10.0 uM
Alpha-1A adrenergic receptor (Rattus norvegicus), sequence (P43140 whole entry, looked up): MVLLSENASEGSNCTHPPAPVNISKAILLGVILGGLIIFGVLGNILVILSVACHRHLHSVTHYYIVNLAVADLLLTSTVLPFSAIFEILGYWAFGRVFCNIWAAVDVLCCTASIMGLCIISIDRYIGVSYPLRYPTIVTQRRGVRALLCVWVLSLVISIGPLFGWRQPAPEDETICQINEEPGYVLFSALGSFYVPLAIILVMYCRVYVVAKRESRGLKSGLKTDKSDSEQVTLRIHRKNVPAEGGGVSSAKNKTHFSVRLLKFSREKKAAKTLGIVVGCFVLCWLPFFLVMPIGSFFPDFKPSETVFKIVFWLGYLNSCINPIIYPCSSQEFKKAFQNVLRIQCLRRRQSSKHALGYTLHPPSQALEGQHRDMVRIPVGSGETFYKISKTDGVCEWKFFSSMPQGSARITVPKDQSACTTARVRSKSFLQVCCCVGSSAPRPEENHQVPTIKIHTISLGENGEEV

Ki (B1 bradykinin receptor [1]): 0.0053 µM (active)
Ki (B1 bradykinin receptor [2]): 0.0133 µM (active)
Ki (B2 bradykinin receptor): > 10 µM (not active)
IC50 (B1 bradykinin receptor [3]): 0.007 µM (active)
Structure (SMILES): COc1cc(C)c(S(=O)(=O)N(C)CCOCC(=O)N(C)[C@H]2CCC[C@@H](N3CCN(C)CC3)C2)c(C)c1
residual activity [4]: 99%
residual activity [5]: 115%
residual activity [6]: 105%
residual activity [7]: 100%
residual activity [8]: 95%
residual activity [9]: 97%
residual activity [10]: 101%
residual activity [11]: 103%
residual activity [12]: 125%
residual activity [13]: 93%
residual activity [14]: 104%
residual activity [15]: 104%
residual activity [16]: 101%
residual activity [17]: 119%
residual activity [18]: 103%
residual activity [19]: 93%
residual activity [20]: 77%
activity at 10 µM (hERG (KCNH2)): 70% (not active)
residual activity [21]: 99%
residual activity [22]: 91%
residual activity [23]: 96%
residual activity [24]: 102%
residual activity [25]: 30%
residual activity [26]: 109%
residual activity [27]: 118%
